BindingDB's records for doi:10.1016/0960-894X(95)00327-P (1995)

Target: Gastrin/cholecystokinin type B receptor (Cavia porcellus)
Test: Binding activity towards cholecystokinin-B (CCK-B) receptor in guinea pig cortex

IC50 | SMILES
0.1 nM | Cc1ccc2c(c1)N(CC(=O)NC(C)(C)C)C(=O)[C@H](NC(=O)Nc1cccc(C(=O)O)c1)C[C@@H]2C1CCCCC1 [3-{3-[(3R,5R)-1-(tert-Butylcarbamoyl-methyl)-5-cyclohexyl-8-methyl-2-oxo-2,3,4,5-tetrahydro-1H-benzo[b]azepin-3-yl]-ureido}-benzoic acid]

Target: Gastrin/cholecystokinin type B receptor (Cavia porcellus)
Test: as above
Remark: another data set of the same source

SMILES | IC50
Cc1ccc2c(c1)N(CC(=O)NC(C)(C)C)C(=O)[C@H](NC(=O)Nc1cccc(-c3nnn[nH]3)c1)C[C@@H]2Cc1ccccc1 [2-((3R,5S)-5-Benzyl-8-methyl-2-oxo-3-{3-[3-(1H-tetrazol-5-yl)-phenyl]-ureido}-2,3,4,5-tetrahydro-benzo[b]azepin-1-yl)-N-tert-butyl-acetamide] | 1.7 nM
Cc1ccc2c(c1)N(CC(=O)NC(C)(C)C)C(=O)[C@H](NC(=O)Nc1cccc(C(=O)NS(=O)(=O)c3ccccc3)c1)C[C@@H]2c1ccccc1 [2-{(3R,5R)-3-[3-(3-Benzenesulfonylaminocarbonyl-phenyl)-ureido]-8-methyl-2-oxo-5-phenyl-2,3,4,5-tetrahydro-benzo[b]azepin-1-yl}-N-tert-butyl-acetamide] | 4.8 nM
Cc1ccc2c(c1)N(CC(=O)NC(C)(C)C)C(=O)[C@H](NC(=O)Nc1cccc(C(=O)O)c1)C[C@@H]2c1ccccc1 [3-{3-[(3R,5R)-1-(tert-Butylcarbamoyl-methyl)-8-methyl-2-oxo-5-phenyl-2,3,4,5-tetrahydro-1H-benzo[b]azepin-3-yl]-ureido}-benzoic acid] | 2.7 nM
Cc1ccc2c(c1)N(CC(=O)NC(C)(C)C)C(=O)[C@H](NC(=O)Nc1cccc(C(=O)NS(=O)(=O)c3ccccc3C)c1)C[C@@H]2c1ccccc1 [N-tert-Butyl-2-((3R,5R)-8-methyl-2-oxo-5-phenyl-3-{3-[3-(toluene-2-sulfonylaminocarbonyl)-phenyl]-ureido}-2,3,4,5-tetrahydro-benzo[b]azepin-1-yl)-acetamide] | 7.9 nM
Cc1ccc2c(c1)N(CC(=O)NC(C)(C)C)C(=O)[C@H](NC(=O)Nc1cccc(C(=O)NS(=O)(=O)Cc3ccccc3)c1)C[C@@H]2c1ccccc1 [N-tert-Butyl-2-{(3R,5R)-8-methyl-2-oxo-5-phenyl-3-[3-(3-phenylmethanesulfonylaminocarbonyl-phenyl)-ureido]-2,3,4,5-tetrahydro-benzo[b]azepin-1-yl}-acetamide] | 4.2 nM
Cc1ccc2c(c1)N(CC(=O)NC(C)(C)C)C(=O)[C@H](NC(=O)Nc1cccc(C(=O)NS(=O)(=O)C(F)(F)F)c1)C[C@@H]2c1ccccc1 [N-tert-Butyl-2-{(3R,5R)-8-methyl-2-oxo-5-phenyl-3-[3-(3-trifluoromethanesulfonylaminocarbonyl-phenyl)-ureido]-2,3,4,5-tetrahydro-benzo[b]azepin-1-yl}-acetamide] | 5.1 nM

Next, values leading:

IC50 | SMILES
0.6 nM | COC(=O)c1cccc(NC(=O)N[C@@H]2C[C@H](C3CCCCC3)c3ccc(C)cc3N(CC(=O)NC(C)(C)C)C2=O)c1 [3-{3-[(3R,5R)-1-(tert-Butylcarbamoyl-methyl)-5-cyclohexyl-8-methyl-2-oxo-2,3,4,5-tetrahydro-1H-benzo[b]azepin-3-yl]-ureido}-benzoic acid methyl ester]
1.4 nM | COC(=O)c1cccc(NC(=O)N[C@@H]2C[C@H](c3ccccc3)c3ccc(C)cc3N(CC(=O)NC(C)(C)C)C2=O)c1 [3-{3-[(3R,5R)-1-(tert-Butylcarbamoyl-methyl)-8-methyl-2-oxo-5-phenyl-2,3,4,5-tetrahydro-1H-benzo[b]azepin-3-yl]-ureido}-benzoic acid methyl ester]
0.22 nM | Cc1ccc2c(c1)N(CC(=O)NC(C)(C)C)C(=O)[C@H](NC(=O)Nc1cccc(-c3nnn[nH]3)c1)C[C@@H]2C1CCCCC1 [N-tert-Butyl-2-((3R,5R)-5-cyclohexyl-8-methyl-2-oxo-3-{3-[3-(1H-tetrazol-5-yl)-phenyl]-ureido}-2,3,4,5-tetrahydro-benzo[b]azepin-1-yl)-acetamide]
0.98 nM | Cc1ccc2c(c1)N(CC(=O)NC(C)(C)C)C(=O)[C@H](NC(=O)Nc1cccc(-c3nnn[nH]3)c1)C[C@@H]2C(C)C [N-tert-Butyl-2-((3R,5R)-5-isopropyl-8-methyl-2-oxo-3-{3-[3-(1H-tetrazol-5-yl)-phenyl]-ureido}-2,3,4,5-tetrahydro-benzo[b]azepin-1-yl)-acetamide]
0.81 nM | Cc1ccc2c(c1)N(CC(=O)NC(C)(C)C)C(=O)[C@H](NC(=O)Nc1cccc(-c3nnn[nH]3)c1)C[C@@H]2c1ccccc1 [N-tert-Butyl-2-((3R,5R)-8-methyl-2-oxo-5-phenyl-3-{3-[3-(1H-tetrazol-5-yl)-phenyl]-ureido}-2,3,4,5-tetrahydro-benzo[b]azepin-1-yl)-acetamide]
1 nM | CCS(=O)(=O)NC(=O)c1cccc(NC(=O)N[C@@H]2C[C@H](c3ccccc3)c3ccc(C)cc3N(CC(=O)NC(C)(C)C)C2=O)c1 [N-tert-Butyl-2-{(3R,5R)-3-[3-(3-ethanesulfonylaminocarbonyl-phenyl)-ureido]-8-methyl-2-oxo-5-phenyl-2,3,4,5-tetrahydro-benzo[b]azepin-1-yl}-acetamide]
0.88 nM | Cc1ccc2c(c1)N(CC(=O)NC(C)(C)C)C(=O)[C@H](NC(=O)Nc1cccc(C(=O)NS(C)(=O)=O)c1)C[C@@H]2c1ccccc1 [N-tert-Butyl-2-{(3R,5R)-3-[3-(3-methanesulfonylaminocarbonyl-phenyl)-ureido]-8-methyl-2-oxo-5-phenyl-2,3,4,5-tetrahydro-benzo[b]azepin-1-yl}-acetamide]
0.26 nM | Cc1ccc2c(c1)N(CC(=O)NC(C)(C)C)C(=O)[C@H](NC(=O)Nc1cccc(C(=O)NS(C)(=O)=O)c1)C[C@@H]2C1CCCCC1 [N-tert-Butyl-2-{(3R,5R)-5-cyclohexyl-3-[3-(3-methanesulfonylaminocarbonyl-phenyl)-ureido]-8-methyl-2-oxo-2,3,4,5-tetrahydro-benzo[b]azepin-1-yl}-acetamide]
